{"source": "PubChem BioAssay AID330", "about": "(DTP/NCI, 2004)", "tested_on": "P388 leukemia ip, CD2F1 mice, survival T/C", "experiment": "NCI In Vivo Anticancer Drug Screen. Data for tumor model P388 Leukemia (intraperitoneal) in CD2F1 (CDF1) mice", "details": "endpoint: median survival time, higher = longer survival", "method_in_brief": "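Mice carrying the transplanted tumor received test compound or vehicle. Survival was recorded in each group, and the value is the treated-group measurement divided by that of the vehicle-treated control group.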", "key": {"[1]": {"details": "dose: 50.0 mg/kg/injection, schedule: Q01DX005 (ip), vehicle: Klucel (hydroxypropylcellulose) (HPC)"}, "[2]": {"details": "dose: 100.0 mg/kg/injection, schedule: Q01DX005 (ip), vehicle: Klucel (hydroxypropylcellulose) (HPC)"}, "[3]": {"details": "dose: 200.0 mg/kg/injection, schedule: Q01DX005 (ip), vehicle: Klucel (hydroxypropylcellulose) (HPC)"}}, "note": "Toxic doses and inconclusive results are not listed.", "data": [{"molecule": "Cc1ccccc1C1C2CCCC(C2=O)C(c2ccccc2C)N1C", "note": "(stereo unspecified)", "values": [{"measurement": "T/C", "setting": "dose: 100.0 mg/kg/injection, schedule: Q04DX003 (ip), vehicle: saline", "value": "100 % of control"}, {"measurement": "T/C", "setting": "dose: 200.0 mg/kg/injection, schedule: Q04DX003 (ip), vehicle: saline", "value": "103 % of control"}, {"measurement": "T/C", "setting": "dose: 400.0 mg/kg/injection, schedule: Q04DX003 (ip), vehicle: saline", "value": "89 % of control"}]}, {"molecule": "N#[N+]c1c([O-])ccc2ccccc12", "values": [{"measurement": "T/C", "setting": "dose: 25.0 mg/kg/injection, schedule: Q04DX002 (ip), vehicle: Klucel (hydroxypropylcellulose) (HPC)", "value": "92 % of control"}, {"measurement": "T/C", "setting": "dose: 50.0 mg/kg/injection, schedule: Q04DX002 (ip), vehicle: Klucel (hydroxypropylcellulose) (HPC)", "value": "104 % of control"}, {"measurement": "T/C", "setting": "dose: 100.0 mg/kg/injection, schedule: Q04DX002 (ip), vehicle: Klucel (hydroxypropylcellulose) (HPC)", "value": "90 % of control"}]}, {"molecule": "CCOC(=O)/C(=C\\c1cccc(OC)c1OC)CC(=O)O", "values": [{"measurement": "T/C", "setting": "dose: 25.0 mg/kg/injection, schedule: Q01DX009 (ip), vehicle: other", "value": "102 % of control"}, {"measurement": "T/C", "setting": "dose: 50.0 mg/kg/injection, schedule: Q01DX009 (ip), vehicle: other", "value": "107 % of control"}, {"measurement": "T/C", "setting": "dose: 100.0 mg/kg/injection, schedule: Q01DX009 (ip), vehicle: other", "value": "98 % of control"}, {"measurement": "T/C", "setting": "dose: 200.0 mg/kg/injection, schedule: Q01DX009 (ip), vehicle: other", "value": "112 % of control"}, {"measurement": "T/C", "setting": "dose: 400.0 mg/kg/injection, schedule: Q01DX009 (ip), vehicle: other", "value": "111 % of control"}]}, {"molecule": "COCCCNC(=S)N/N=C/c1cc(Cl)cc(Cl)c1O", "values": [{"measurement": "T/C", "setting": "dose: 6.25 mg/kg/injection, schedule: Q01DX009 (ip), vehicle: saline with Tween-80", "value": "92 % of control"}, {"measurement": "T/C", "setting": "dose: 12.5 mg/kg/injection, schedule: Q01DX009 (ip), vehicle: saline with Tween-80", "value": "87 % of control"}, {"measurement": "T/C", "setting": "dose: 200.0 mg/kg/injection, schedule: Q01DX009 (ip), vehicle: saline with Tween-80", "value": "93 % of control"}]}, {"molecule": "O=[N+]([O-])c1ccc(Sc2ncccn2)cc1", "values": [{"measurement": "T/C", "setting": "dose: 25.0 mg/kg/injection, schedule: Q04DX002 (ip), vehicle: suspension in saline", "value": "108 % of control"}, {"measurement": "T/C", "setting": "dose: 50.0 mg/kg/injection, schedule: Q04DX002 (ip), vehicle: suspension in saline", "value": "94 % of control"}, {"measurement": "T/C", "setting": "dose: 100.0 mg/kg/injection, schedule: Q04DX002 (ip), vehicle: suspension in saline", "value": "101 % of control"}, {"measurement": "T/C", "setting": "dose: 200.0 mg/kg/injection, schedule: Q04DX002 (ip), vehicle: suspension in saline", "value": "100 % of control"}, {"measurement": "T/C", "setting": "dose: 400.0 mg/kg/injection, schedule: Q04DX002 (ip), vehicle: suspension in saline", "value": "96 % of control"}]}, {"molecule": "COc1ccc2c(c1O)-c1cc(O)cc3c1C(C2)N(C(=O)CN(CCCl)CCCl)CC3", "note": "(stereo unspecified)", "values": [{"measurement": "T/C", "setting": "dose: 12.5 mg/kg/injection, schedule: Q04DX003 (ip), vehicle: distilled water + Tween-80", "value": "158 % of control"}, {"measurement": "T/C", "setting": "dose: 12.5 mg/kg/injection, schedule: Q04DX003 (ip), vehicle: water", "value": "158 % of control"}, {"measurement": "T/C", "setting": "dose: 25.0 mg/kg/injection, schedule: Q04DX003 (ip), vehicle: distilled water + Tween-80", "value": "114 % of control"}, {"measurement": "T/C", "setting": "dose: 25.0 mg/kg/injection, schedule: Q04DX003 (ip), vehicle: water", "value": "116 % of control"}, {"measurement": "T/C", "setting": "dose: 50.0 mg/kg/injection, schedule: Q04DX003 (ip), vehicle: water", "value": "96 % of control"}]}, {"molecule": "Nc1ccc(S(=O)(=O)NC(CSSCC(NS(=O)(=O)c2ccc(N)cc2)C(=O)O)C(=O)O)cc1", "note": "(stereo unspecified)", "values": [{"measurement": "T/C", "setting": "[1]", "value": "110 % of control"}, {"measurement": "T/C", "setting": "[2]", "value": "101 % of control"}, {"measurement": "T/C", "setting": "[3]", "value": "113 % of control"}]}, {"molecule": "C(=Nc1ccc(N=Cc2ccccc2P(c2ccccc2)c2ccccc2)cc1)c1ccccc1P(c1ccccc1)c1ccccc1", "values": [{"measurement": "T/C", "setting": "dose: 50.0 mg/kg/injection, schedule: Q01DX009 (ip), vehicle: Klucel (hydroxypropylcellulose) (HPC)", "value": "99 % of control"}, {"measurement": "T/C", "setting": "dose: 100.0 mg/kg/injection, schedule: Q01DX009 (ip), vehicle: Klucel (hydroxypropylcellulose) (HPC)", "value": "99 % of control"}, {"measurement": "T/C", "setting": "dose: 200.0 mg/kg/injection, schedule: Q01DX009 (ip), vehicle: Klucel (hydroxypropylcellulose) (HPC)", "value": "99 % of control"}]}, {"molecule": "C1CN2CCO[Si](CC[Si]34OCCN(CCO3)CCO4)(O1)OCC2", "values": [{"measurement": "T/C", "setting": "[1]", "value": "106 % of control"}, {"measurement": "T/C", "setting": "[2]", "value": "113 % of control"}, {"measurement": "T/C", "setting": "[3]", "value": "94 % of control"}]}, {"molecule": "CCCCCC1(CCCCCCCC(=O)OCC)OCCO1", "values": [{"measurement": "T/C", "setting": "dose: 100.0 mg/kg/injection, schedule: Q04DX003 (ip), vehicle: Klucel (hydroxypropylcellulose) (HPC)", "value": "97 % of control"}, {"measurement": "T/C", "setting": "dose: 200.0 mg/kg/injection, schedule: Q04DX003 (ip), vehicle: Klucel (hydroxypropylcellulose) (HPC)", "value": "103 % of control"}, {"measurement": "T/C", "setting": "dose: 400.0 mg/kg/injection, schedule: Q04DX003 (ip), vehicle: Klucel (hydroxypropylcellulose) (HPC)", "value": "97 % of control"}]}, {"molecule": "O=C1N(Cl)C2(c3ccccc3)N(Cl)C(=O)N(Cl)C2(c2ccccc2)N1Cl", "note": "(stereo unspecified)", "values": [{"measurement": "T/C", "setting": "dose: 25.0 mg/kg/injection, schedule: Q04DX003 (ip), vehicle: Klucel (hydroxypropylcellulose) (HPC)", "value": "103 % of control"}, {"measurement": "T/C", "setting": "dose: 50.0 mg/kg/injection, schedule: Q04DX003 (ip), vehicle: Klucel (hydroxypropylcellulose) (HPC)", "value": "110 % of control"}]}, {"molecule": "CCCCCCCCCCCCN1CN=C(N)N(C#N)C1", "values": [{"measurement": "T/C", "setting": "dose: 100.0 mg/kg/injection, schedule: Q04DX002 (ip), vehicle: saline with Tween-80", "value": "92 % of control"}, {"measurement": "T/C", "setting": "dose: 200.0 mg/kg/injection, schedule: Q04DX002 (ip), vehicle: saline with Tween-80", "value": "99 % of control"}, {"measurement": "T/C", "setting": "dose: 400.0 mg/kg/injection, schedule: Q04DX002 (ip), vehicle: saline with Tween-80", "value": "90 % of control"}]}]}
